One assay relates to E. coli DH5α/pLBII. Nature of the assay: Broth microdilution MIC assay, empty vector control strain. The following applies: Escherichia coli, read-out: E. coli DH5α/pLBII Microbiological Activity (MIC). Format: cell-based. As to the method:
(§1) To determine the ability of test compounds to potentiate the inhibition of the growth of bacterial strains, classic cell based broth microdilution MIC assays were employed. MIC assays are performed according to CLSI methods except where otherwise noted (CLSI, 2011 and CLSI, 2009). The reference strain S. aureus ATCC 29213 and the hyper-permeable E. coli 901C were used to determine the ability of the PBP compounds to inhibit bacterial growth. Briefly, cryo-preserved bacterial cultures of clinical strains are streaked for isolation on appropriate agar medium, in this case Mueller Hinton II agar. Following incubation to allow formation of colonies these plates are sealed with parafilm and stored refrigerated for up to two weeks. For preparation of assay inocula and to ensure low variability, at least 5 colonies are picked from the agar plates with an inoculating loop and aseptically transferred to a culture tube containing 3 mL of Mueller-Hinton Broth (supplemented with divalent cations to required levels based on Manufacturers' certification). The broth culture is grown for 3-5 hours at 37° C. with shaking at 200 rpm. Meanwhile, 2-fold serial dilutions of test compounds are conducted in a 96 well plate with a final volume of 75 μL per well at 2-fold the final desired concentration. After the dilution plates are set up the growing cultures are then diluted in a cuvette containing MH II broth and the optical density is measured at 600 nm. Inocula are diluted such that 75 μL of this culture in Mueller-Hinton Broth results in a starting bacterial concentration of 5×10^5 CFU/mL when added to the dilution plates. The plates are incubated 16-20 hours at 37° C. The MIC is read visually as the lowest concentration well with no bacterial growth.
(§2) To determine if test compounds were affected by CTX-M15, the most abundant extended spectrum β-lactamase in clinical settings worldwide, the inhibition of the growth of an engineered strain of Escherichia coli harboring CTX-M15 was tested. This strain was constructed by cloning the gene encoding CTX-M15 into the NdeI and BamHI restriction endonuclease sites of plasmid pLBII, placing the gene(s) under the control of the Lac promoter. The constructed expression plasmid for CTX-M15 was used to transform competent E. coli DH5a cells to make the engineered strain, including an empty pLBII vector control strain. The classic cell based broth microdilution MIC assay was employed as described above with the addition of control antibiotics, known to be degraded by β-lactamases (Ceftazidime, piperacillin and piperacillin+tazobactam).
A general note: Dilution methods test growth across graded concentrations, often in twofold steps.

The next assay has as its system S. aureus ATCC 29213. Nature of the assay: Broth microdilution MIC assay. The following applies: Staphylococcus aureus, ATCC29213; broth microdilution, 16-20 hours at 37° C.; read-out: S. aureus 29213 MIC. Format: cell-based. As to the method:
as §1

For assay [1], the system named is hyper-permeable E. coli 901C. The assay can be described thus: Broth microdilution MIC assay. Format: cell-based. The following applies: Escherichia coli, read-out: E. coli 901C MIC. As to the method:
as §1

In assay [2] the test system is E. coli DH5α/pLBII-CTX-M15. Nature of the assay: Broth microdilution MIC assay, engineered strain producing CTX-M15. The following applies: Escherichia coli, read-out: E. coli DH5α/pLBII-CTX-M15 Microbiological Activity (MIC). Format: cell-based, Escherichia coli. On the procedure: as §1, §2

For the compound `COc1ccc([C@@H](N)C(=O)N[C@H]2Cc3cccc(C(=O)O)c3OB2O)cc1` [Example 4, (R)-3-((R)-2-amino-2-(4-methoxyphenyl)acetamido)-2-hydroxy-3,4-dihydro-2H-benzo[e][1,2]oxaborinine-8-carboxylic acid], the MIC in the assay with E. coli DH5α/pLBII is greater than 512 µg/mL; with S. aureus ATCC 29213, greater than 128 µg/mL; in assay [1], greater than 128 µg/mL; in assay [2] it was greater than 512 µg/mL.
Take `CCC(O)[C@H](NC(=O)N1CCN(CC)C(=O)C1=O)C(=O)N[C@H]1Cc2cccc(C(=O)O)c2OB1O` (single isomer, unassigned) [Example 83]: the MIC in the assay with E. coli DH5α/pLBII was 128 to 256 µg/mL; in the assay with S. aureus ATCC 29213, greater than 128 µg/mL; in assay [1] it was 64 to 128 µg/mL; in assay [2], 128 to 256 µg/mL.
Regarding `CCCN1CCN(C(=O)NC(C(=O)N[C@H]2Cc3cccc(C(=O)O)c3OB2O)c2csc(NC(=O)OCc3ccccc3)n2)C(=O)C1=O` (stereo partly drawn) [Example 56, (3R)-3-(2-(2-(((benzyloxy)carbonyl)amino)thiazol-4-yl)-2-(2,3-dioxo-4-propylpiperazine-1-carboxamido)acetamido)-2-hydroxy-3,4-dihydro-2H-benzo[e][1,2]oxaborinine-8-carboxylic acid], the MIC in the assay with E. coli DH5α/pLBII was greater than 512 µg/mL; in the assay on S. aureus ATCC 29213, 64 to 128 µg/mL; in assay [1], less than 64 µg/mL; in assay [2] it was greater than 512 µg/mL.
On to `COC(=O)C(=O)NC(C(=O)N[C@H]1Cc2cccc(C(=O)O)c2OB1O)c1csc(N)n1` (stereo partly drawn) [Example 28, (3R)-3-(2-(2-aminothiazol-4-yl)-2-(2-methoxy-2-oxoacetamido)acetamido)-2-hydroxy-3,4-dihydro-2H-benzo[e][1,2]oxaborinine-8-carboxylic acid], for which the MIC with E. coli DH5α/pLBII is 32 to 64 µg/mL; in the assay with S. aureus ATCC 29213, greater than 128 µg/mL; in assay [1], less than 64 µg/mL; in assay [2] it was 32 to 64 µg/mL.
Regarding `N[C@@H](C(=O)N[C@H]1Cc2cccc(C(=O)O)c2OB1O)c1ccc(O)cc1` [Example 6, (R)-3-((R)-2-amino-2-(4-hydroxyphenyl)acetamido)-2-hydroxy-3,4-dihydro-2H-benzo[e][1,2]oxaborinine-8-carboxylic acid], the MIC in the assay on E. coli DH5α/pLBII is greater than 512 µg/mL; in the assay with S. aureus ATCC 29213 it was greater than 128 µg/mL; in assay [1] it was greater than 128 µg/mL; in assay [2], greater than 512 µg/mL.
For the compound `Nc1nc(C(NC(=O)C2CCCC(=O)N2)C(=O)N[C@H]2Cc3cccc(C(=O)O)c3OB2O)cs1` (stereo partly drawn) [Example 68, (3R)-3-(2-(2-aminothiazol-4-yl)-2-(6-oxopiperidine-2-carboxamido)acetamido)-2-hydroxy-3,4-dihydro-2H-benzo[e][1,2]oxaborinine-8-carboxylic acid], the MIC in the assay with E. coli DH5α/pLBII was 128 to 256 µg/mL; in the assay with S. aureus ATCC 29213 it was greater than 128 µg/mL; in assay [1] it was less than 64 µg/mL; in assay [2] it was 128 to 256 µg/mL.
In the case of `Cn1ccc(C(=O)NC(C(=O)N[C@H]2Cc3cccc(C(=O)O)c3OB2O)c2csc(N)n2)cc1=O` (stereo partly drawn) [Example 42, (3R)-3-(2-(2-aminothiazol-4-yl)-2-(1-methyl-2-oxo-1,2-dihydropyridine-4-carboxamido)acetamido)-2-hydroxy-3,4-dihydro-2H-benzo[e][1,2]oxaborinine-8-carboxylic acid], the MIC with E. coli DH5α/pLBII is 32 to 64 µg/mL; in the assay on S. aureus ATCC 29213, 64 to 128 µg/mL; in assay [1] it was less than 64 µg/mL; in assay [2], 32 to 64 µg/mL.
Turning to `Nc1nc(C(NC(=O)N2CCN(CC(F)F)C(=O)C2=O)C(=O)N[C@H]2Cc3cccc(C(=O)O)c3OB2O)cs1` (stereo partly drawn) [Example 69, (3R)-3-(2-(2-aminothiazol-4-yl)-2-(4-(2,2-difluoroethyl)-2,3-dioxopiperazine-1-carboxamido)acetamido)-2-hydroxy-3,4-dihydro-2H-benzo[e][1,2]oxaborinine-8-carboxylic acid], the MIC is 8 to 16 µg/mL with E. coli DH5α/pLBII, 64 to 128 µg/mL in the assay on S. aureus ATCC 29213, less than 64 µg/mL in assay [1] and 8 to 16 µg/mL in assay [2].
Regarding `CCN1CCN(C(=O)N[C@H](Cc2c[nH]cn2)C(=O)N[C@H]2Cc3cccc(C(=O)O)c3OB2O)C(=O)C1=O` [Example 40, (R)-3-((R)-2-(4-ethyl-2,3-dioxopiperazine-1-carboxamido)-3-(1H-imidazol-4-yl)propanamido)-2-hydroxy-3,4-dihydro-2H-benzo[e][1,2]oxaborinine-8-carboxylic acid], the MIC was 128 to 256 µg/mL with E. coli DH5α/pLBII, greater than 128 µg/mL in the assay on S. aureus ATCC 29213, 64 to 128 µg/mL in assay [1] and 128 to 256 µg/mL in assay [2].
Take `CN(C)C(=O)NC(C(=O)N[C@H]1Cc2cccc(C(=O)O)c2OB1O)c1csc(N)n1` (stereo partly drawn) [Example 14, (3R)-3-(2-(2-aminothiazol-4-yl)-2-(3,3-dimethylureido)acetamido)-2-hydroxy-3,4-dihydro-2H-benzo[e][1,2]oxaborinine-8-carboxylic acid]: the MIC in the assay on E. coli DH5α/pLBII was 128 to 256 µg/mL; in the assay with S. aureus ATCC 29213, greater than 128 µg/mL; in assay [1] it was less than 64 µg/mL; in assay [2] it was 128 to 256 µg/mL.
As to `Nc1nc(C(NC(=O)N2CCOCC2)C(=O)N[C@H]2Cc3cccc(C(=O)O)c3OB2O)cs1` (stereo partly drawn) [Example 18, (3R)-3-(2-(2-aminothiazol-4-yl)-2-(morpholine-4-carboxamido)acetamido)-2-hydroxy-3,4-dihydro-2H-benzo[e][1,2]oxaborinine-8-carboxylic acid], the MIC was 128 to 256 µg/mL in the assay on E. coli DH5α/pLBII, greater than 128 µg/mL in the assay on S. aureus ATCC 29213, less than 64 µg/mL in assay [1] and 128 to 256 µg/mL in assay [2].
As for `CCNC(=O)NC(C(=O)N[C@H]1Cc2cccc(C(=O)O)c2OB1O)c1csc(N)n1` (stereo partly drawn) [Example 25, (3R)-3-(2-(2-aminothiazol-4-yl)-2-(3-ethylureido)acetamido)-2-hydroxy-3,4-dihydro-2H-benzo[e][1,2]oxaborinine-8-carboxylic acid], the MIC was 32 to 64 µg/mL in the assay on E. coli DH5α/pLBII, greater than 128 µg/mL with S. aureus ATCC 29213, less than 64 µg/mL in assay [1] and 32 to 64 µg/mL in assay [2].
For `Nc1nc(C(NC(=O)N2CCN(CCCF)C(=O)C2=O)C(=O)N[C@H]2Cc3cccc(C(=O)O)c3OB2O)cs1` (stereo partly drawn) [Example 54, (3R)-3-(2-(2-aminothiazol-4-yl)-2-(4-(3-fluoropropyl)-2,3-dioxopiperazine-1-carboxamido)acetamido)-2-hydroxy-3,4-dihydro-2H-benzo[e][1,2]oxaborinine-8-carboxylic acid], the MIC is 8 to 16 µg/mL in the assay on E. coli DH5α/pLBII, 64 to 128 µg/mL in the assay on S. aureus ATCC 29213, less than 64 µg/mL in assay [1] and 8 to 16 µg/mL in assay [2].
On to `N[C@H](C(=O)N[C@H]1Cc2cccc(C(=O)O)c2OB1O)c1ccc(O)cc1` [Example 7, (R)-3-((S)-2-amino-2-(4-hydroxyphenyl)acetamido)-2-hydroxy-3,4-dihydro-2H-benzo[e][1,2]oxaborinine-8-carboxylic acid], for which the MIC in the assay with E. coli DH5α/pLBII is 128 to 256 µg/mL; in the assay with S. aureus ATCC 29213, 64 to 128 µg/mL; in assay [1], greater than 128 µg/mL; in assay [2], 128 to 256 µg/mL.
As to `CCN1CCN(C(=O)NC(C(=O)N[C@@H]2Cc3cccc(C(=O)O)c3OB2O)c2csc(N)n2)C(=O)C1=O` (stereo partly drawn) [Example 33, (3S)-3-(2-(2-aminothiazol-4-yl)-2-(4-ethyl-2,3-dioxopiperazine-1-carboxamido)acetamido)-2-hydroxy-3,4-dihydro-2H-benzo[e][1,2]oxaborinine-8-carboxylic acid], the MIC is 128 to 256 µg/mL with E. coli DH5α/pLBII, greater than 128 µg/mL with S. aureus ATCC 29213, less than 64 µg/mL in assay [1] and 128 to 256 µg/mL in assay [2].
As to `Nc1nc(C(NC(=O)CO)C(=O)N[C@H]2Cc3cccc(C(=O)O)c3OB2O)cs1` (stereo partly drawn) [Example 29, (3R)-3-(2-(2-aminothiazol-4-yl)-2-(2-hydroxyacetamido)acetamido)-2-hydroxy-3,4-dihydro-2H-benzo[e][1,2]oxaborinine-8-carboxylic acid], the MIC in the assay on E. coli DH5α/pLBII was 32 to 64 µg/mL; with S. aureus ATCC 29213 it was greater than 128 µg/mL; in assay [1], less than 64 µg/mL; in assay [2], 32 to 64 µg/mL.
Consider `Nc1nc(CC(=O)NC(C(=O)N[C@H]2Cc3cccc(C(=O)O)c3OB2O)c2csc(N)n2)cs1` (stereo partly drawn) [Example 22, (3R)-3-(2-(2-aminothiazol-4-yl)-2-(2-(2-aminothiazol-4-yl)acetamido)acetamido)-2-hydroxy-3,4-dihydro-2H-benzo[e][1,2]oxaborinine-8-carboxylic acid], for which the MIC in the assay with E. coli DH5α/pLBII is 128 to 256 µg/mL; in the assay with S. aureus ATCC 29213, 64 to 128 µg/mL; in assay [1] it was less than 64 µg/mL; in assay [2], 128 to 256 µg/mL.

The values above are taken from patent publication US11332485B2, “Penicillin-binding protein inhibitors” (priority 2017, dated 2022).
